Experiments:
[1] = target: T1, Protein cereblon/CREB-binding protein (Homo sapiens, UniProt Q92793+Q96SW2); test: PROTAC activity at CBP/CRBN in human VCaP cells assessed as protein degradation incubated for 4 hrs by Western blot analysis; format: cell-based
Target sequence in this assay (Q92793 whole entry): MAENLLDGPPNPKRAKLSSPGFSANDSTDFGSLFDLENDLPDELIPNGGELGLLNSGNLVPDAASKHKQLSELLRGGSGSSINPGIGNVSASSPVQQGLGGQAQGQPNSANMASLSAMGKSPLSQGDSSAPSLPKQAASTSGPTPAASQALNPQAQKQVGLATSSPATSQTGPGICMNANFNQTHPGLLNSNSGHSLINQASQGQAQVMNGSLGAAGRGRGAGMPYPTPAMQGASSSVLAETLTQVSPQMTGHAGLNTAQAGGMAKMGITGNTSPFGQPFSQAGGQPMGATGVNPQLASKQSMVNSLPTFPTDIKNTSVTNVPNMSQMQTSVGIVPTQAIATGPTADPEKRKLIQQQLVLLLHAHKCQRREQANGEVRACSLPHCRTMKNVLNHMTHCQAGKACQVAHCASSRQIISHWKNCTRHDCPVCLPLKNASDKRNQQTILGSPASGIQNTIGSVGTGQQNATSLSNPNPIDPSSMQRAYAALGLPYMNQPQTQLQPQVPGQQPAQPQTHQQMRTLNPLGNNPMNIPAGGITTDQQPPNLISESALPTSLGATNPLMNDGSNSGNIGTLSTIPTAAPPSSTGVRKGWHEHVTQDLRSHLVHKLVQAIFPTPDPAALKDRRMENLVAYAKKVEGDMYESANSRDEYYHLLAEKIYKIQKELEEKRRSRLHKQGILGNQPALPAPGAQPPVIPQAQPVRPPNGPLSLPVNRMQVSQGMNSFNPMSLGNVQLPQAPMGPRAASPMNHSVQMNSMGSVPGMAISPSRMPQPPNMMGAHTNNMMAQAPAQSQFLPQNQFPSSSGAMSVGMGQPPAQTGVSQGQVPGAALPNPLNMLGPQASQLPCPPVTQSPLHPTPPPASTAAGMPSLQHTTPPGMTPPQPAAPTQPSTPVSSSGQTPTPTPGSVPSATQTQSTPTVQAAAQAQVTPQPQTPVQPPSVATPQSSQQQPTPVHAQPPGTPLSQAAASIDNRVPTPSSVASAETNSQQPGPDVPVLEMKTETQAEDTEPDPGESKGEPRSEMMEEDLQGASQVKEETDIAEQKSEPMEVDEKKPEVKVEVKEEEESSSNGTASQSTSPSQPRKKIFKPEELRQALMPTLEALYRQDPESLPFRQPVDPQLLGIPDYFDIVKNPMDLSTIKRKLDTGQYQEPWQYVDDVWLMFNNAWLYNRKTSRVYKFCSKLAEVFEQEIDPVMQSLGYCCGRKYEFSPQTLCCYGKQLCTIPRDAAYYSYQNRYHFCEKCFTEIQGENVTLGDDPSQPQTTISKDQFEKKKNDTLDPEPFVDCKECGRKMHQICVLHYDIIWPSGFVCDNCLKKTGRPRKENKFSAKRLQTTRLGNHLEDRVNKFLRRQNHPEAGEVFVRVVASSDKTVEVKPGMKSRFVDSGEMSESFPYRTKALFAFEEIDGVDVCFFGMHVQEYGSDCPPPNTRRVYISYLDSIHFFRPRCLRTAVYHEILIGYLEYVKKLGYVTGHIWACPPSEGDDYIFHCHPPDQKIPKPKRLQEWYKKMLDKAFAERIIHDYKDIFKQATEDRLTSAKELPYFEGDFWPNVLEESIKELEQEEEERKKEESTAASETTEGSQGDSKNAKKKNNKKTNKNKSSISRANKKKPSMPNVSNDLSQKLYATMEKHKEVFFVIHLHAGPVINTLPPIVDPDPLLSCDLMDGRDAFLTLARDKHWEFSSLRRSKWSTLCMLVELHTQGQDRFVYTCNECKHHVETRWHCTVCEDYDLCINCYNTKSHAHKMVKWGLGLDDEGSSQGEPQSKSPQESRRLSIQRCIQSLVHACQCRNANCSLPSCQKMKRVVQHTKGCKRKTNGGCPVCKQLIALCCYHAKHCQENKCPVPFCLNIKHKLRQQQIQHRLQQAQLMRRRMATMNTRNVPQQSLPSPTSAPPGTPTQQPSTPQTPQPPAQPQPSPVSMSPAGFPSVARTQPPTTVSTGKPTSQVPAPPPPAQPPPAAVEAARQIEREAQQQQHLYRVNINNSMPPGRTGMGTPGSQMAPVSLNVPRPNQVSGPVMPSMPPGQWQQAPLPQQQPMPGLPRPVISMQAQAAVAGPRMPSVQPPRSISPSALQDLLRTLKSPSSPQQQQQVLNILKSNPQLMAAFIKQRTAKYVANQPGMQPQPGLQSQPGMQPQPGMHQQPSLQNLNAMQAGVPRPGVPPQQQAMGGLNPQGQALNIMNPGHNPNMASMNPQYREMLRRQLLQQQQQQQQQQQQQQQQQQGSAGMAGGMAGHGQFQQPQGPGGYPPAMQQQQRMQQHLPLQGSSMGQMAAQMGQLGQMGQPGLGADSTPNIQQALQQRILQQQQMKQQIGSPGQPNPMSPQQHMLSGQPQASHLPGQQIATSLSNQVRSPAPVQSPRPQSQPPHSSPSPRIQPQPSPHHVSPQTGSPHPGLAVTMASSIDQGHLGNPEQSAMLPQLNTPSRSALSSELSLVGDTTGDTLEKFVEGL
Target sequence in this assay (Q96SW2 whole entry): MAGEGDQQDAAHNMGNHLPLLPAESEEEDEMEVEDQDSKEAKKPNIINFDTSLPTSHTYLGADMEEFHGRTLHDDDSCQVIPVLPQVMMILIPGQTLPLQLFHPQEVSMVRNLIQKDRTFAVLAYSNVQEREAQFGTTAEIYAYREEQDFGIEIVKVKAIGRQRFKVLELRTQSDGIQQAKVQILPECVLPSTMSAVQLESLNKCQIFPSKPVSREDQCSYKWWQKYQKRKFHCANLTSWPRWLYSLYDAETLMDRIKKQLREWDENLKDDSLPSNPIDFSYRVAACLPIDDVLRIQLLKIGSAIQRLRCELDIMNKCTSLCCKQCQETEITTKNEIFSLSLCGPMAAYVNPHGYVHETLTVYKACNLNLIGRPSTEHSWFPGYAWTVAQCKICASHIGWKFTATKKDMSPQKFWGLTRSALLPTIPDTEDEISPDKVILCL

[2] = target: T1, Protein cereblon/CREB-binding protein; test: PROTAC activity at CBP/CRBN in human VCaP cells assessed as maximal protein degradation at 1 uM incubated for 4 hrs by Western blot analysis relative to control; format: cell-based
[3] = target: T2, Protein cereblon/Histone acetyltransferase p300 (Homo sapiens, UniProt Q09472+Q96SW2); test: PROTAC activity at p300/CRBN in human VCaP cells assessed as maximal protein degradation at 1 uM incubated for 4 hrs by Western blot analysis relative to control; format: cell-based
[4] = target: T2, Protein cereblon/Histone acetyltransferase p300; test: PROTAC activity at p300/CRBN in human VCaP cells assessed as protein degradation incubated for 4 hrs by Western blot analysis; format: cell-based
[5] = Oral plasma exposure in SCID mouse at 5 mg/kg, po measured after 6 hrs; format: ADME, organism-based; details: SCID, plasma
[6] = Oral plasma exposure in SCID mouse at 5 mg/kg, po measured after 3 hrs; format: ADME, organism-based; details: SCID, plasma
[7] = Oral plasma exposure in SCID mouse at 5 mg/kg, po measured after 1 hr; format: ADME, organism-based; details: SCID, plasma
[8] = target: T1, Protein cereblon/CREB-binding protein; test: Potency index, ratio of […] DC50 to test compound DC50 for PROTAC activity at CBP/CRBN in human VCaP cells assessed as protein degradation incubated for 4 hrs by Western blot analysis; format: cell-based
[9] = target: T2, Protein cereblon/Histone acetyltransferase p300; test: Potency index, ratio of CPBD-409 DC50 to test compound DC50 for PROTAC activity at p300/CRBN in human VCaP cells assessed as protein degradation incubated for 4 hrs by Western blot analysis; format: cell-based

| SMILES | DC50 [1] [nM] | Emax [2] [%] | Emax [3] [%] | DC50 [4] [nM] | concentration at 6 h [5] [ng/mL] | concentration at 3 h [6] [ng/mL] | concentration at 1 h [7] [ng/mL] | Ratio [8] | Ratio [9] |
| --- | --- | --- | --- | --- | --- | --- | --- | --- | --- |
| CC(=O)N1CCc2c(c(N3CCCc4cc(-c5cnn(C)c5)c(C(F)F)cc43)nn2C2CCN(C(=O)CCNc3cccc4c3C(=O)N(C3CCC(=O)NC3=O)C4=O)CC2)C1 (stereo unspecified) | 8 | 88 | 81 | 18 | – | – | – | – | – |
| CC(=O)N1CCc2c(c(N3CCCc4cc(-c5cnn(C)c5)c(C(F)F)cc43)nn2C2CCN(C(=O)c3ccc4c(c3)C(=O)N(C3CCC(=O)NC3=O)C4=O)CC2)C1 (stereo unspecified) | > 1000 | < 50 | < 50 | > 1000 | – | – | – | – | – |
| CC(=O)N1CCc2c(c(N3CCCc4cc(-c5cnn(C)c5)c(C(F)F)cc43)nn2C2CCN(C(=O)c3cccc4c3C(=O)N(C3CCC(=O)NC3=O)C4=O)CC2)C1 (stereo unspecified) | > 1000 | < 50 | < 50 | > 1000 | – | – | – | – | – |
| CC(=O)N1CCc2c(c(N3CCCc4cc(-c5cnn(C)c5)c(C(F)F)cc43)nn2[C@H]2CC[C@H](CN3CCN(c4cc5c(cc4F)C(=O)N(C4CCC(=O)NC4=O)C5=O)CC3)CC2)C1 (stereo partly specified) | 1.2 | 94 | 94 | 1.2 | – | – | – | 4 | 4 |
| CC(=O)N1CCc2c(c(N3CCCc4cc(-c5cnn(C)c5)c(C(F)F)cc43)nn2C2CCN(C(=O)Nc3cccc4c3C(=O)N(C3CCC(=O)NC3=O)C4=O)CC2)C1 (stereo unspecified) | > 1000 | < 50 | < 50 | > 1000 | – | – | – | – | – |

Molecules with a lower DC50 [1], results first:

| DC50 [1] [nM] | Emax [2] [%] | Emax [3] [%] | DC50 [4] [nM] | concentration at 6 h [5] [ng/mL] | concentration at 3 h [6] [ng/mL] | concentration at 1 h [7] [ng/mL] | Ratio [8] | Ratio [9] | SMILES |
| --- | --- | --- | --- | --- | --- | --- | --- | --- | --- |
| 0.1 | > 95 | > 95 | < 0.1 | – | – | – | – | – | CC(=O)N1CCc2c(c(N3CCCc4cc(-c5cnn(C)c5)c(C(F)F)cc43)nn2[C@H]2CC[C@H](CN3CCN(c4ccc5c(c4)CN(C4CCC(=O)NC4=O)C5=O)CC3)CC2)C1 (stereo partly specified) |
| 1.1 | > 95 | > 95 | 0.6 | 82.2 | 122 | 122 | – | – | CC(=O)N1CCc2c(c(N3CCCc4cc(-c5cnn(C)c5)c(C(F)F)cc43)nn2C2CCN(C3CCN(c4ccc5c(c4)C(=O)N(C4CCC(=O)NC4=O)C5=O)CC3)CC2)C1 (stereo unspecified) |
| 0.9 | > 95 | > 95 | 0.4 | 2 | 3.2 | 5.1 | – | – | CC(=O)N1CCc2c(c(N3CCCc4cc(-c5cnn(C)c5)c(C(F)F)cc43)nn2C2CCN(C(=O)CCNc3ccc4c(c3)C(=O)N(C3CCC(=O)NC3=O)C4=O)CC2)C1 (stereo unspecified) |
| 0.5 | > 95 | > 95 | 0.4 | 149 | 235 | 183 | – | – | CC(=O)N1CCc2c(c(N3CCCc4cc(-c5cnn(C)c5)c(C(F)F)cc43)nn2C2CCN(C3CC4(C3)CN(c3ccc5c(c3)C(=O)N(C3CCC(=O)NC3=O)C5=O)C4)CC2)C1 (stereo unspecified) |
| 0.4 | 115 | > 95 | 0.2 | – | – | – | – | – | CC(=O)N1CCc2c(c(N3CCCc4cc(-c5cnn(C)c5)c(C(F)F)cc43)nn2C2CCN(C(=O)CCCCCNc3cccc4c3C(=O)N(C3CCC(=O)NC3=O)C4=O)CC2)C1 (stereo unspecified) |
